# Test results as given in EP4725954A1, “MODIFIED PEPTIDES SUCH AS POLYPEPTIDES LA-19 AND TM-19 HAVING ANTI-AGING AND REPAIRING EFFECTS AND USE THEREOF” (Anhui Dexin Huahai Biological Technology Co. Ltd., priority 2023, dated 2025).
# Read-outs that look alike come from different tables or passages of the source. Where no end group is shown, it is not given here.
# Tests used:
# [1] = system: Human keratinocytes (HaCaT cells); assay: Cytotoxicity test of the polypeptides on keratinocytes (CCK-8); settings: in words; for effect on cell growth: compared to the blank group
# Description: (§3) Human keratinocytes (HaCaT cells, Nanjing Saihongrui Biotechnology Co., Ltd.).
# (§4) Cell culture conditions: constant temperature and humidity incubator (37°C, 95% air, 5% carbon dioxide), 90% dulbecco's modified eagle medium (DMEM) high-glucose medium + 10% fetal bovine serum (Nanjing BioChannel Biotechnology Co., Ltd).
# (§5) A cell culture flask was taken out from the cell incubator, observed under a microscope, and the cells were in the logarithmic growth phase. In a clean bench, the medium was discarded, the cells were rinsed with 2 mL of phosphate buffer saline (PBS) and discarded; after repeating the above process once, 2 mL of 0.25% trypsin was added for digestion. The digestion was terminated by adding a corresponding volume of serum-containing medium, and the cells were transferred to a 15 mL conical centrifuge tube and centrifuged at 1000 rpm for 5 minutes. The serum-containing medium was resuspended in a resuspension volume of 2 mL. The cells were counted and calculated. The cells were then diluted, and plated; then the diluted cell suspension was taken, then the 96-well plate was paved with 10^4 cells/well, and the edge wells were filled with PBS. The well plate was taken out from the cell incubator, the medium was discarded, the well-plate of the administration group was added with the corresponding drugs and placed into the cell incubator for incubation for 48 hours. On the day of detection, the 96-well plate was taken out from the cell incubator, and added with 10 µL of a CCK-8 reagent per well in the clean bench, and then quickly placed into the cell incubator for 60 minutes, and the absorbance was measured with a microplate reader and the absorbance was measured at OD 450 nm. The average reading of the blank group was taken, and the numerical value of each group was divided by the average value to obtain the change in cell viability. Results are expressed as Mean ± SEM, compared with the blank group, *P<0.05 denotes a significant difference, **P<0.01, ***P<0.001, and ****P<0.0001 denote very significant differences.
# [2] = system: Human keratinocytes (HaCaT cells)
# Description: as §3, §4, §5
# IL-6 = assay: Anti-inflammatory activity test on keratinocytes: IL-6 ELISA; assay type: cell-based, Human; settings: 10 µM; UVB 30 mJ/cm^2, HaCaT supernatant; blank 10.619, model 18.622; Mean ± SEM
# Description: (§1) Interleukin-6 ELISA assay kit (Shanghai Beyotime Biotechnology Co., Ltd.); tumor necrosis factor α ELISA assay kit (Shanghai Beyotime Biotechnology Co., Ltd.); 6-well plate (Wuxi NEST Biotechnology Co., Ltd.); and palmitoyl tetrapeptide-7 (Shenzhen Jianyuan Pharmaceutical Technology Co., Ltd.). Other experimental materials and instruments are the same as those in Examples 1, 2, and 3.
# (§2) The cells were counted and calculated. […] After 24 hours of incubation, cell UV modeling was performed. The UVB lamp tube was turned on, and the radiation intensity was measured with a UV irradiance meter. When the radiation intensity reached 500 µW/cm^2, the uncovered 6-well plate was placed and irradiated for 1 minute such that the radiation dose was up to 30 mJ/cm^2. At the end of the radiation, the 6-well plate was covered and placed into the cell incubator.
# TNF-α = assay: Anti-inflammatory activity test on keratinocytes: TNF-α ELISA; assay type: cell-based, Human; settings: 10 µM; UVB 30 mJ/cm^2, HaCaT supernatant; blank 2.890, model 10.812; Mean ± SEM
# Description: as §1, §2
Substance,effect on cell growth [1],other results
"TKAAA [Acein, reference compound]",do not significantly inhibit cell growth,–
LQSSLRALRQM [P5],–,effect on cell growth [2]: do not significantly inhibit cell growth
TKAAAGGGLQTSLRALRQI [P10],do not significantly inhibit cell growth,–
LQSSLRALRQMGGGTKAAA-NH2 [P7],do not significantly inhibit cell growth,–
LQSSLRALRQMGGGTKAAA [LA-19],do not significantly inhibit cell growth,toxicity to keratinocytes [1]: no obvious toxicity to keratinocytes
Ac-LQTSLRALRQIGGGTKAAA [P9],do not significantly inhibit cell growth,–
LQTSLRALRQIGGGTKAAA [P8],do not significantly inhibit cell growth,–
TKAAAGGGLQSSLRALRQM [TM-19],slightly inhibit cell growth at low concentrations but promote cell proliferation at high concentrations,–
GGGLQSSLRALRQM [P4],do not significantly inhibit cell growth,–
palmitoyl tetrapeptide-7,–,IL-6 activity (pg/mgprot) (IL-6): 13.901±1.356 pg/mgprot; TNF-α activity (pg/mgprot) (TNF-α): 6.832±2.461 pg/mgprot
Ac-LQSSLRALRQMGGGTKAAA [P6],do not significantly inhibit cell growth,–
LQSSLRALRQMGGG [P3],do not significantly inhibit cell growth,–
